MIC data for 11 compounds are collected here from DBAASP.

≈ marks a conversion by molar mass, not a printed value. Where “and” joins values, the source holds several entries; their conditions need not be identical. Equal entries are not always repeated.

Holding throughout (experiment): ≥ marks a high value that may be exact or a test limit, other limits are often not marked, values filed in µg/mL are converted to µM
Test [1] concerns Klebsiella pneumoniae ATCC 13883.
For test [2], the system named is Pseudomonas aeruginosa ATCC 27853.
For test [3], the system named is Escherichia coli DH5alpha.
Test [4] deals with Salmonella enterica subsp. enterica serovar Typhimurium ATCC 14028.
The subject of test [5] is Candida albicans ATCC 2002.
The next test deals with Bacillus subtilis.
The subject of test [6] is Escherichia coli ATCC 25922.
Test [7] has as its system Staphylococcus aureus ATCC 2592.
Test [8] relates to Staphylococcus aureus NCTC 8325.
In test [9] the test system is Staphylococcus aureus ATCC 25923.
Test [10] concerns Staphylococcus aureus ATCC 29213.
Test [11] relates to Salmonella enterica subsp. enterica serovar Typhimurium C77-31.
A further test has as its system Escherichia coli UB1005.
Test [12] has as its system Staphylococcus epidermidis ATCC 12228.
Test [13] relates to Candida albicans ATCC 90028.

Turning to `CC[C@H](C)[C@H](NC(=O)[C@H](Cc1cnc[nH]1)NC(=O)[C@H](C)NC(=O)[C@H](CCSC)NC(=O)[C@H](CC(N)=O)NC(=O)[C@H](CCCCN)NC(=O)[C@H](CCCCN)NC(=O)[C@@H](NC(=O)[C@@H](NC(=O)[C@H](CCCCN)NC(=O)[C@H](C)NC(=O)[C@H](Cc1ccccc1)NC(=O)[C@H](CC(C)C)NC(=O)[C@H](CCCCN)NC(=O)[C@@H]1CCCN1C(=O)[C@H](CC(C)C)NC(=O)[C@H](Cc1ccccc1)NC(=O)[C@@H](N)CS)[C@@H](C)CC)[C@@H](C)O)C(=O)N[C@@H](CCCN=C(N)N)C(=O)O` [CFLPKLFAKITKKNMAHIR], the MIC was 7 µM and 5 µM in test [1]; 10 µM (≈ 22.6 µg/mL) in [2]; 10 µM (≈ 22.6 µg/mL) in test [3]; 15 µM (≈ 33.9 µg/mL) in test [4].

In the case of `CC[C@H](C)[C@H](NC(=O)[C@H](C)NC(=O)[C@H](CS)NC(=O)[C@@H](NC(=O)[C@@H](NC(=O)[C@@H](NC(=O)[C@@H]1CCCN1C(=O)[C@@H](NC(=O)[C@@H](NC(=O)[C@@H](NC(=O)[C@H](C)NC(=O)[C@H](Cc1ccccc1)NC(=O)[C@H](CC(C)C)NC(=O)[C@H](CCCN=C(N)N)NC(=O)[C@H](CCCN=C(N)N)NC(=O)[C@H](CC(C)C)NC(=O)CNC(=O)[C@@H]1CCCN1C(=O)[C@@H](NC(=O)[C@@H](N)Cc1ccccc1)[C@@H](C)CC)[C@@H](C)O)C(C)C)C(C)C)[C@@H](C)O)C(C)C)C(C)C)C(=O)N[C@@H](CC(N)=O)C(=O)N[C@@H](CCCCN)C(=O)N[C@@H](CC(C)C)C(=O)N1CCC[C@H]1C(=O)N1CCC[C@H]1C(=O)NCC(=O)O` [FIPGLRRLFATVVPTVVCAINKLPPG], the MIC was 2.27 µM (≈ 6.3 µg/mL) in test [5], 18 µM (≈ 50 µg/mL) in the test with Bacillus subtilis, 4.5 µM (≈ 12.5 µg/mL) in test [6] and 4.5 µM (≈ 12.5 µg/mL) in test [7].

Consider `CC[C@H](C)[C@H](NC(=O)[C@@H](NC(=O)[C@H](CO)NC(=O)[C@@H]1CCCN1C(=O)[C@@H](NC(=O)[C@H](CC(C)C)NC(=O)[C@H](CCCCN)NC(=O)[C@H](Cc1ccccc1)NC(=O)[C@H](CC(C)C)NC(=O)CNC(=O)CNC(=O)[C@H](CC(C)C)NC(=O)[C@@H](N)Cc1ccccc1)C(C)C)C(C)C)C(=O)N[C@H]1CSSC[C@@H](C(=O)O)NC(=O)[C@H](CCCCN)NC(=O)[C@H](CCCCN)NC(=O)[C@H]([C@@H](C)O)NC(=O)[C@H](C(C)C)NC(=O)[C@H](C)NC1=O` [FLGGLFKLVPSVICAVTKKC], for which the MIC in [8] and in test [6] was 12.5 µM (≈ 26.5 µg/mL) in each case.

`CC[C@H](C)[C@H](NC(=O)CNC(=O)[C@H](CO)NC(=O)[C@H](CCCN=C(N)N)NC(=O)[C@@H](N)Cc1ccccc1)C(=O)N[C@@H](CC(C)C)C(=O)N[C@@H](CCCCN)C(=O)N[C@@H](CC(C)C)C(=O)N[C@@H](C)C(=O)N[C@@H](CO)C(=O)N[C@@H](CCCCN)C(=O)N[C@H](C(=O)NCC(=O)N[C@@H](CO)C(=O)N[C@H](C(=O)N[C@@H](CC(C)C)C(=O)N[C@H]1CSSC[C@@H](C(=O)O)NC(=O)[C@H](CC(N)=O)NC(=O)[C@H](CCCCN)NC(=O)[C@H](CC(C)C)NC(=O)[C@H](C(C)C)NC(=O)[C@H](C)NC1=O)C(C)C)[C@@H](C)CC` [FRSGILKLASKIGSVLCAVLKNC]: the minimum inhibitory concentration (MIC) in test [5] is 10.3 µM (≈ 25 µg/mL); with Bacillus subtilis, 20.7 µM (≈ 50 µg/mL); in test [6], 20.7 µM (≈ 50 µg/mL); in test [7] it was 10.3 µM (≈ 25 µg/mL).

As for `CC[C@H](C)[C@H](NC(=O)CNC(=O)[C@H](CCC(N)=O)NC(=O)[C@H](Cc1ccccc1)NC(=O)[C@H](Cc1ccccc1)NC(=O)[C@H](CCCCN)NC(=O)[C@H](CCCCN)NC(=O)[C@H](CC(C)C)NC(=O)[C@H](C)NC(=O)[C@H](CC(N)=O)NC(=O)[C@H](CC(C)C)NC(=O)CN)C(=O)N[C@@H](Cc1cnc[nH]1)C(=O)N[C@@H](CCC(=O)O)C(=O)N[C@@H](C)C(=O)N[C@H](C(=O)N[C@@H](CCCCN)C(=O)N[C@@H](CC(C)C)C(=O)N[C@H](C(=O)N[C@@H](CC(N)=O)C(=O)N[C@@H](CC(N)=O)C(=O)N[C@@H](Cc1cnc[nH]1)C(=O)N[C@H](C(=O)N[C@@H](CCC(N)=O)C(=O)O)C(C)C)[C@@H](C)CC)[C@@H](C)CC` [GLNALKKFFQGIHEAIKLINNHVQ], the MIC in [8] was not below 160 µM; in [6], 20 µM (≈ 54.7 µg/mL).

Take `CC[C@H](C)[C@H](NC(=O)CNC(=O)[C@H](CCC(N)=O)NC(=O)[C@H](Cc1ccccc1)NC(=O)[C@@H](NC(=O)[C@H](CCCCN)NC(=O)[C@H](CCCCN)NC(=O)[C@H](CC(C)C)NC(=O)[C@H](C)NC(=O)[C@H](CC(N)=O)NC(=O)[C@H](CC(C)C)NC(=O)CN)C(C)C)C(=O)N[C@@H](Cc1cnc[nH]1)C(=O)N[C@@H](CCC(=O)O)C(=O)N[C@@H](C)C(=O)N[C@H](C(=O)N[C@@H](CCCCN)C(=O)N[C@@H](CC(C)C)C(=O)N[C@H](C(=O)N[C@@H](CC(N)=O)C(=O)N[C@@H](CC(N)=O)C(=O)N[C@@H](Cc1cnc[nH]1)C(=O)N[C@H](C(=O)N[C@@H](CCCCN)C(=O)O)C(C)C)[C@@H](C)CC)[C@@H](C)CC` [GLNALKKVFQGIHEAIKLINNHVK]: the MIC was not below 80 µM in test [8] and 20 µM (≈ 53.7 µg/mL) in test [6].

With `CC(C)C[C@H](NC(=O)[C@H](CCCN=C(N)N)NC(=O)[C@H](CCCN=C(N)N)NC(=O)[C@H](Cc1ccccc1)NC(=O)[C@H](CCCN=C(N)N)NC(=O)CN)C(=O)N[C@@H](CCCN=C(N)N)C(=O)N[C@@H](CCCCN)C(=O)N[C@@H](CCCCN)C(=O)N[C@H](C(=O)N[C@@H](CCCN=C(N)N)C(=O)N[C@@H](CCCCN)C(N)=O)[C@@H](C)O` [GRFRRLRKKTRK], the MIC was more than 128 µM in test [9]; more than 128 µM in [10]; not below 128 µM in [11]; not below 128 µM in the test with Escherichia coli UB1005; 128 µM (≈ 205 µg/mL) in [6]; more than 128 µM in test [12].

With `CC(C)C[C@H](NC(=O)[C@H](CCCN=C(N)N)NC(=O)[C@H](Cc1c[nH]c2ccccc12)NC(=O)[C@H](CCCN=C(N)N)NC(=O)[C@@H](NC(=O)[C@H](Cc1c[nH]c2ccccc12)NC(=O)[C@H](Cc1c[nH]c2ccccc12)NC(=O)[C@H](CCCN=C(N)N)NC(=O)[C@H](CC(C)C)NC(=O)[C@H](CCCN=C(N)N)NC(=O)[C@@H](N)CCCN=C(N)N)[C@@H](C)O)C(=O)N[C@@H](CCCCN)C(N)=O` [RRLRWWTRWRLK], the MIC was 8 µM (≈ 14.5 µg/mL) in [9]; 4 µM (≈ 7.25 µg/mL) in test [10]; 8 µM (≈ 14.5 µg/mL) in [11]; 4 µM (≈ 7.25 µg/mL) in the test on Escherichia coli UB1005; 4 µM (≈ 7.25 µg/mL) in test [6]; 8 µM (≈ 14.5 µg/mL) in [12].

Regarding `CC[C@H](C)[C@H](NC(=O)[C@@H](NC(=O)[C@@H]1CCCN1C(=O)[C@H](CC(C)C)NC(=O)[C@@H](NC(=O)[C@@H](N)CO)[C@@H](C)CC)[C@@H](C)O)C(=O)N[C@H](C(=O)N[C@@H](CO)C(=O)N[C@@H](Cc1ccccc1)C(=O)N[C@@H](CC(C)C)C(=O)N[C@@H](CO)C(=O)N[C@@H](CCCCN)C(=O)N[C@@H](Cc1ccccc1)C(=O)N[C@@H](CC(C)C)C(N)=O)C(C)C` [SILPTIVSFLSKFL], the MIC in test [8] was 24 µM (≈ 37.5 µg/mL).

As to `CC[C@H](C)[C@H](NC(=O)[C@H](CCSC)NC(=O)[C@@H](N)CO)C(=O)N[C@@H](CO)C(=O)N[C@H](C(=O)N[C@@H](CC(C)C)C(=O)N[C@@H](CCCCN)C(=O)N[C@@H](CC(N)=O)C(=O)N[C@@H](CC(C)C)C(=O)NCC(=O)N[C@@H](CCCCN)C(=O)N[C@H](C(=O)NCC(=O)N[C@@H](CC(C)C)C(=O)NCC(=O)N[C@@H](Cc1ccccc1)C(=O)N[C@H](C(=O)N[C@@H](C)C(=O)N[C@H]1CSSC[C@@H](C(=O)O)NC(=O)[C@H](CCC(N)=O)NC(=O)[C@H](CCCCN)NC(=O)[C@H](CC(N)=O)NC(=O)[C@H](C(C)C)NC(=O)[C@H](CCCCN)NC1=O)C(C)C)C(C)C)C(C)C` [SMISVLKNLGKVGLGFVACKVNKQC], the MIC in test [13] is not below 110 µM; in test [8], not below 60 µM; in test [6], 3.5 µM (≈ 9.22 µg/mL).

Regarding `CC(C)[C@H](N)C(=O)N[C@@H](CCCCN)C(=O)N[C@@H](CCCN=C(N)N)C(=O)N[C@@H](Cc1c[nH]c2ccccc12)C(=O)N[C@@H](CCCCN)C(=O)N[C@@H](CCCCN)C(=O)N[C@@H](Cc1ccccc1)C(=O)N[C@@H](Cc1c[nH]c2ccccc12)C(=O)N[C@@H](CCCN=C(N)N)C(=O)N[C@@H](CCCCN)C(=O)N[C@@H](Cc1c[nH]c2ccccc12)C(=O)N[C@@H](CCCCN)C(=O)N[C@@H](CCCCN)C(=O)N[C@@H](Cc1c[nH]c2ccccc12)C(=O)N[C@@H](Cc1c[nH]c2ccccc12)C(N)=O` [VKRWKKFWRKWKKWW], the MIC in test [5] amounted to 1.03 µM (≈ 2.34 µg/mL); against Bacillus subtilis, 2.06 µM (≈ 4.69 µg/mL); in test [6] it was 8.24 µM (≈ 18.7 µg/mL); in [7] it was 2.06 µM (≈ 4.69 µg/mL).

The MIC is the least concentration at which growth counts as inhibited.
